These results are taken from patent US20210267978A1, “NANOPARTICLE FORMULATIONS OF IKE AND METHODS OF USE THEREOF” (The Trustees of Columbia University in the City of New York, priority 2018, published 2021).

The subject of one data set is SUDHL6 cells. The data set can be described thus: qPCR analysis of gene expression in cell culture. It is filed as cell-based. The procedure: To perform qPCR analysis in cell culture, DLBCL cells were treated with 0-10 μM IKE, Fer-1, or β-Me for the indicated times. RNA was extracted using the Qiashredder and Qiagen RNeasy Mini kits (Qiagen) according to the manufacture's protocol. 2 μg RNA from each sample was reversed transcribed to cDNA using a High Capacity cDNA Reverse Transcription Kit (Thermo Fisher Scientific, 4368814). Quantitative PCR reactions were performed using Power SYBR Green PCR Master Mix (Applied Biosystems) with triplicate measurement on ViiA 7 Real-Time PCR instrument (Thermo Fischer). HPRT1 was used as an internal reference. Differences in mRNA levels compared with HPRT1 were computed between vehicle and experimental groups using the ΔΔCt method. The primers used in the study were listed below.
(In general: Real-time PCR tracks product formation cycle by cycle.)

The test system of data set [1] is SUDHL6 xenograft tumor tissue. The data set can be described thus: Immunofluorescence on paraffin-embedded tumor sections after one IKE dose. It is filed as in vivo, NCG mice. The conditions noted are these: 4 h after one dose of IKE. The procedure: NCG mice 6-weeks of age were injected with 10 million SUDHL-6 cells subcutaneously. Visible tumors appeared after 2 weeks. Tumor size was measured by electronic caliper every 2 days and calculated using the formula: 0.5×length×width^2. After another 2 weeks, mice were randomly separated into group of 3 mice per cage with roughly tumor size (1200 mm^3). Mice were dosed at 50 mg/kg IKE, 22 mg/kg IKE, 22 mg/kg IKE PEG-PLGA nanoparticles (equal to 600 mg/kg PEG-PLGA) using IP at one time and samples were collected at 0, 1, 2, 3, 4, 6, and 24 h with three mice per time point. Mice were dosed with Vehicle 1 and Vehicle 2 (600 mg/kg PEG-PLGA) by IP and samples were collected at 24 h. Mice were euthanized using a CO2 gas chamber before xenograft dissection and cardio puncture. Plasma samples were collected and analyzed as described above. […] After drying, the samples were resuspended in 100 μL of methanol and analyzed on the LC-MS with each sample analyzed twice. […] The concentration of IKE in the sample was determined by comparison against a standard curve of IKE in the range of 25 to 2,500 ng/mL. […] Pharmacokinetics parameters of IKE were assessed using Prism fitted with Lognormal of one phase exponential decay. […]
Tumor tissue was fixed in 4% paraformaldehyde (PFA) for 24 h at 4° C. followed by washing three times with PBS. […] Then the above steps were followed for staining and quantification.

Data set [2] is described as follows: IKE efficacy study, mouse weight. It is filed as in vivo, NCG mice. To be noted: 14 days, starting from day 9. The protocol: IKE was dissolved in 5% DMSO/95% HBSS at pH 4 to create a 4 mg/mL solution. 5% DMSO/95% HBSS at pH 4 was used as vehicle 1. IKE PEG-PLGA nanoparticles and unfunctionalized PEG-PLGA nanoparticles (without IKE loading) (vehicle 2) prepared with a NanoAssemblr were dialyzed with deionized water overnight, the water was changed at least twice. Dialyzed IKE-PEG-PLGA nanoparticles and unfunctional PEG-PLGA nanoparticles were concentrated by Amicon Ultra-15 Centrifugal Filter Units to create a solution with 80 mg/mL PEG-PLGA nanoparticles. All above solutions were sterilized by filter through a 0.2 μm syringe filter.
NCG mice, 6-weeks old, were injected with 10 million SUDHLO-6 cells subcutaneously. […] Tumor volume was measured daily with electronic caliper and calculated using the formula: 0.5×length×width^2. […] Tumor volume change was analyzed in Prism using one-way ANOVA. Tumor tissues were analyzed as described in the RT-qPCR, immunofluorescence, TBARS, and lipidomics sections below.
We investigated the efficacy of IKE in vivo in male NCG mice bearing SUDHL6 subcutaneous xenografts. […] During the experimental period, mouse weight and tumor volume were measured daily to determine IKE's antitumor effect and possible toxicity. Tumor growth was calculated as the fold change relative to original tumor volume on day 0 before the first dose (FIG. 4C). […]

With `CC(C)Oc1ccc(C(=O)Cn2ccnc2)cc1-n1c(CN2CCN(C(=O)COc3ccc(Cl)cc3)CC2)nc2ccccc2c1=O` [IKE, Imidazole ketone erastin], the “GPX4, CBS and ACSL4 expression” value in the data set with SUDHL6 cells (DLBCL cells, IKE treatment (data not shown)) was “not upregulated”. The “SLC7A11, PTGS2 and CHAC1 expression” value with SUDHL6 cells (SUDHL6 cells following IKE treatment) is listed as “significantly increased”. In the data set on SUDHL6 cells (SUDHL-6 cells, 500 nM IKE), the “SLC7A11 expression induced starting from (time post incubation)” value worked out at 3 h; the “expression of lipid metabolism genes ACC1, ELOVL7, ATGL, sPLA2F, LPEAT1, LPCAT4, ALOX12, ALOX15” value is on record as “upregulated”; the “highest mRNA change (CHAC1)” value amounted to 33 fold. In the data set on SUDHL6 cells (SUDHL-6 cells, 500 nM IKE, starting from 5 minutes), the “increased PTGS2 expression” value is “over 10 fold”. Besides, the “increased CHAC1 expression” value with SUDHL6 cells (SUDHL-6 cells, 500 nM IKE, starting from post 5 minutes) is recorded as “over 5 fold”. In data set [1], the “increase of 8-OHdG (fluorescence intensity) relative to vehicle” value is 1.5 fold and the “increase of dihydropyridine-MDA-lysine adducts (fluorescence intensity) relative to vehicle” value amounted to 1.6 fold. For the same compound, the mouse weight entry in data set [2] (23 mg/kg daily) is on record as “weight loss”. In data set [2] (40 mg/kg daily), the mouse weight entry is “weight loss”.
